# PubChem BioAssay AID449774 (The Scripps Research Institute Molecular Screening Center, 2010)
# Test system: wildtype E. coli growth inhibition, MIC
# Test: wildtype E. coli growth inhibition, late-stage follow-up, counter-screen for IMP-1/VIM-2 inhibitor project, MIC, dose response (AID 449774)
row,Structure (SMILES),MIC
1,Cc1cc[c]([Hg+])cc1,1.56 µM
2,CC(=O)Nc1cc[c]([Hg+])cc1,1.56 µM
3,[Hg+][c]1ccccc1,0.39 µM
4,COc1cccc[c]1[Hg+],0.78 µM
5,O=C(O)c1cc[c]([Hg][Cl])cc1,12.5 µM
6,O=C(O)c1ccc[c]([Hg+])c1,3.13 µM
7,C[C@@H](O)[C@H]1C(=O)N2C(C(=O)O)=C(SCCN=CN)C[C@H]12,0.78 µM
